# Measured values published in patent US20260000763A1, “Methods of Manufacturing Therapeutic Cells” (The Board of Trustees of the Leland Stanford Junior …, priority 2022, published 2026).
# Test system: HA-INO-CAR T cells
# Test: Ciclopirox treatment of inosine-cultured HA-CAR T cells, memory subsets by flow cytometry
# Format: cell-based, human
# Settings: 20 μM CPX for 24 h, day 16, CD8+ inosine-cultured HA-CAR T cells
# Description: Concatenated samples from n=3 donors. […] (Left) Dot plots of representative donor shown.
smiles,measurement,value
"Cc1cc(C2CCCCC2)n(O)c(=O)c1 [CPX, ciclopirox]",frequency of central memory-like cells,striking decrease
